The test system of one assay is tele-methylhistamine. Kind of assay: Effects on brain tele-methylhistamine levels. To be noted: male Sprague-Dawley rats, oral, frontal cortex. Format: in vivo, rat. On the procedure: Compounds of the invention were dissolved in 20% 2-hydroxyl-beta-cyclodextran (HBC) and then sonicated briefly until there is little or no suspension in the solution. Animals (male Sprague-Dawley rats at the age of 8 weeks) were orally dosed with test compounds I hour or other longer time points before they were sacrificed using CO2.
A cardiac puncture was performed to collect blood sample from the cardiac cavity. The collected blood was immediately mixed with EDTA-K2 20 μl/ml to avoid blood clotting. The blood samples in tubes were then centrifuged (15 mim, 6000 rpm) and the plasma transferred to new tubes and then temporarily kept in dry ice until they were stored in a −70° C. freezer.
CSF collection: CSF samples were taken from the foramen magnum of the animal (using a #0.5 intravenous needle), and the CSF sample were kept in dry ice.
The rat brain were taken out of the skull and rinsed with ice-cold saline first. The frontal cortex was separated from the rest of the brain on top of a petri dish with ice underneath. The wet weight of the frontal cortex was weighed and recorded immediately. The frontal cortex sample was then kept in dry ice until they are transferred to a −70° C. freezer.
Bioanalytical Methods for Tele-Methyl Histamine and Compounds:
• Instrument: Agilent 6410, triple quadrupole mass spectrometer • Matrix: rat plasma, frontal cortex homogenate and cerebrospinal fluid (CSF) • Analyte: H3 compounds. • Internal standard: Dexamethasone HPLC Conditions Mobile Phase A: H2O—0.1% NH3.H2O: • Mobile phase B: MeOH-0.1% NH3.H2O • Column: Ultimate XB-C18 (2.1×50 mm, 5 μm) • Flow rate: 0.45 mL/min, temperature: 40° C. MS Conditions: • ESI: positive ion • MRM detection • Dexamethasone: [M+H]+m/z 393.3→373.2; CE: 4; Fragmentor: 110 Sample Preparation: Frontal Cortex:
the brain sample was homogenized for 2 min with 3 volumes (v/w) of homogenizing solution (EtOH:PBS=85:15), and then centrifuged at 12,000 rpm for 5 min. […]

Another assay concerns the target human H3 receptors (Homo sapiens (Human), UniProt Q9Y5N1). In words: Potency assessment: blockade of (R)-alpha-methylhistamine-mediated cAMP production (LANCE Ultra cAMP kit). The following applies: CHO cells expressing human H3 receptors. Format: cell-based. On the procedure:
The potency of compounds of the invention as H3 receptor antagonists can be assessed by measuring the blockade of (R)-alpha-methylhistamine-mediated cAMP production utilizing a LANCE Ultra cAMP kit (PE #TRF0263) in CHO cells expressing human H3 receptors (GenBank: BC096840; Strausberg R L et al, Proc. Natl. Acad. Sci. U.S.A. 99(26), 16899-16903; 2002).
2. Preparation of assay plate: Different concentrations of the compounds of the invention (0.01-1000 nM), H3 positive controls and cAMP calibration standards; […] Forskolin (CALBIOCHEM #344270); 5 μM (R)-alpha-methylhistamine (H3 receptor agonist); 1% DMSO (SIGMA #D2650); total volume: 95 nl.
3. Preparation of the cell solution: Collect cells with stimulation buffer, final density: 100,000 cells/ml.
4. Reaction: (a) transfer 10 μl of cell solution to assay plate, (b) centrifuge at 600 rpm for 3 min and incubate 50 min at room temperature, (c) add 5 μL 4× Eu-cAMP tracer solution (60 μl Eu-cAMP tracer stock solution+2.94 ml cAMP detection buffer) and 5 μL 4× ULight™-anti-cAMP solution (20 μl […]+2.98 ml cAMP detection buffer) to assay plate.
5. Reading plate on EnVision: flash energy: 100%; excitation filter: 111 UV2 320; emission filter: 203 (Eu 615) and 205 (APC 665); number of laser flashes: 20; window: 100 μs; laser mirror module: 445 or 446; laser cycle: 16,600 μs.
6. Data analysis by GraphPad Prism: log (compound concentration) vs. response; variable slope.

The structures appear in SMILES notation.

Chain of human H3 receptors (Q9Y5N1 whole entry): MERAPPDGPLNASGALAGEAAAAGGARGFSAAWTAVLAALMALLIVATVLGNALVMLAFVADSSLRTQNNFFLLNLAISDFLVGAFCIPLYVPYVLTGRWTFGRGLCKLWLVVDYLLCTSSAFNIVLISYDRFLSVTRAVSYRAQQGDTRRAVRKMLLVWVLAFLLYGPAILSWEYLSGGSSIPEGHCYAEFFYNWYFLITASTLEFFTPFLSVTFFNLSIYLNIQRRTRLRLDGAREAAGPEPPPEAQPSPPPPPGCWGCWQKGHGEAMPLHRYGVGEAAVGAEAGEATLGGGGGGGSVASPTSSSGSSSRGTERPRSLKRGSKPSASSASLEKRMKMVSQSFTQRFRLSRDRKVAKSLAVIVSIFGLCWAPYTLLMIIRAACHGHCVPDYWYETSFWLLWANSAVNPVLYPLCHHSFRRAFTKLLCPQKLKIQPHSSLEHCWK

In general, Ki refers to a dissociation constant, usually derived from enzyme kinetics or from competition with a known ligand. Read a high Ki as lower affinity. For the compound `O=C(OC1CCN(c2ccc(=O)[nH]n2)CC1)N1CCN(C2CCC2)CC1` [Example 1.1, 1-(6-oxo-1,6-dihydropyridazin-3-yl)piperidin-4-yl 4-cyclobutylpiperazine-1-carboxylate], the “% change in tele-methylhistamine brain levels for 10 mg/kg @ 1 h” value in the assay with tele-methylhistamine is given as 72%. At human H3 receptors, the Ki stood at 1.3 nM.
Take `CC(C)N1CCN(C(=O)OC2CCN(c3ccc(=O)n(C)n3)CC2)CC1` [Example 1.2, 1-(1-methyl-6-oxo-1,6-dihydropyridazin-3-yl)piperidin-4-yl 4-isopropylpiperazine-1-carboxylate]: the “% change in tele-methylhistamine brain levels for 10 mg/kg @ 1 h” value in the assay on tele-methylhistamine was 138%. This compound gave a Ki at human H3 receptors of 2.4 nM.
In the same order, the values of `CC(C)N1CCN(C(=O)OC2CCN(c3ccc(=O)[nH]n3)CC2)CC1` [Example 1.3, 1-(6-oxo-1,6-dihydropyridazin-3-yl)piperidin-4-yl 4-isopropylpiperazine-1-carboxylate] are 115% and 1.2 nM.

The record behind these values is US9034874B2, “Carbamate/urea derivatives” (NOVARTIS AG, priority 2012, dated 2015).
